In patent US9212182B2, “Bicyclic sulfonamide compounds as sodium channel inhibitors” (AMGEN INC., priority 2013, dated 2015):
Read-outs that look alike come from different tables or passages of the source.

Biological target: Nav 1.7 (Homo sapiens (Human), UniProt Q15858)
Experiment: in-vitro Nav 1.7 PX (IC50)
Assay type: cell-based

Chain of Nav 1.7 (Q15858 whole entry): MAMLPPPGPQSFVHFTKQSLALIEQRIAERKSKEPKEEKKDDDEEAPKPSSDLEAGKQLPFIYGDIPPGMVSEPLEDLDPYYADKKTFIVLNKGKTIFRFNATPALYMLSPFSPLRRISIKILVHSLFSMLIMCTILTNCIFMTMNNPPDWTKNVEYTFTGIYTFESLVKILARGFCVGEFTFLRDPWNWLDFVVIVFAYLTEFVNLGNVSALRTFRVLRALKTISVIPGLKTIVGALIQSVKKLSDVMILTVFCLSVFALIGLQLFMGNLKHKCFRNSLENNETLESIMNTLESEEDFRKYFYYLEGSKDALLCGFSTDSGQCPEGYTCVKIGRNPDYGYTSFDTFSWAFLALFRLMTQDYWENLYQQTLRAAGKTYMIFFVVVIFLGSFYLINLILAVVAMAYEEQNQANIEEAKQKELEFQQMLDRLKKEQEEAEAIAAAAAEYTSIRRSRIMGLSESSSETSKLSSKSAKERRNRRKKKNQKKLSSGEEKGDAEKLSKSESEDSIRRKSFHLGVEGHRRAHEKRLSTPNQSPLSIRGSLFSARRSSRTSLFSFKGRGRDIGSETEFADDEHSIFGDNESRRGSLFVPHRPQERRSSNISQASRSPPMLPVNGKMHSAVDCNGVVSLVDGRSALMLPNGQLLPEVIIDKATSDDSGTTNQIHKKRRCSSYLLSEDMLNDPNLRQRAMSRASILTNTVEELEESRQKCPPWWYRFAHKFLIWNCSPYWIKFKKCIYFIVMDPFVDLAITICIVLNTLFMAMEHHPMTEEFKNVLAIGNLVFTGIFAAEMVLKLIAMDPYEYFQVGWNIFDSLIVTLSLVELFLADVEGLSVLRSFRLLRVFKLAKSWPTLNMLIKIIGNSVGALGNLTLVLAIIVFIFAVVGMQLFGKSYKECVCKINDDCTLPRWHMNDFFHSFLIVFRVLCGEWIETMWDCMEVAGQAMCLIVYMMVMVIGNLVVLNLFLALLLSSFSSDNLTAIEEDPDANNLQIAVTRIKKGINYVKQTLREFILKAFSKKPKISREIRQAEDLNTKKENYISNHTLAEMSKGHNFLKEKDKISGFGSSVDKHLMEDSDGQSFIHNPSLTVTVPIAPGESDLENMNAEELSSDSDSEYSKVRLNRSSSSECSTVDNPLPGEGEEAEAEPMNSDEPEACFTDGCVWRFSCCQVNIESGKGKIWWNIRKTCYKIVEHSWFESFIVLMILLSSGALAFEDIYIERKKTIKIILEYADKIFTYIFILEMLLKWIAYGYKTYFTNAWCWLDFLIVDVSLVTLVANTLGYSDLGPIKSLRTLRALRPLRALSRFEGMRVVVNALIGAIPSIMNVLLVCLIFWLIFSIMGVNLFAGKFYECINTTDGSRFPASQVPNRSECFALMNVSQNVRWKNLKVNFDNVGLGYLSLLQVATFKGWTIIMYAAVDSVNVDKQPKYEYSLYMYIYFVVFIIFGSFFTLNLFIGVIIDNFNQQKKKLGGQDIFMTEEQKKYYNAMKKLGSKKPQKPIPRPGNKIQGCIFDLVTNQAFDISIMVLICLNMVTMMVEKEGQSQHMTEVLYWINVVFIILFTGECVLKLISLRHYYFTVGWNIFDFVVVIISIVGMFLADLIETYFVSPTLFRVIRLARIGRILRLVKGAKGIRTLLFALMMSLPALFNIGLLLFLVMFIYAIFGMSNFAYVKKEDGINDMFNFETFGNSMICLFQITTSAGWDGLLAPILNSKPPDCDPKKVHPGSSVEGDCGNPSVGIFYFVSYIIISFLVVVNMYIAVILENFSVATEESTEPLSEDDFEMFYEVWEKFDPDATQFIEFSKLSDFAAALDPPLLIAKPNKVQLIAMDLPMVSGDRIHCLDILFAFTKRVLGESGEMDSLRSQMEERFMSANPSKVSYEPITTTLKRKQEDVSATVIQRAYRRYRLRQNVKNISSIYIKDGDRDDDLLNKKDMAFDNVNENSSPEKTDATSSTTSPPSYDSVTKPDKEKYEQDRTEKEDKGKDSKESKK

`COc1cc(-c2cccc(Cl)c2)c(Cl)cc1-n1c(=O)ccc2cc(S(=O)(=O)Nc3ccon3)ccc21` (atropisomer, axis not shown; (P)) [Example 459, (P)-1-(2,3′-dichloro-5-methoxy-[1,1′-biphenyl]-4-yl)-N-(isoxazol-3-yl)-2-oxo-1,2-dihydroquinoline-6-sulfonamide] was tested, and the IC50 was 0.012 µM.

`COc1cc(-c2cccc(Cl)c2OC)c(F)cc1-n1c(=O)ccc2cc(S(=O)(=O)Nc3ccon3)ccc21` [Example 747, 1-(3′-chloro-2-fluoro-2′,5-dimethoxy-4-biphenylyl)-N-3-isoxazolyl-2-oxo-1,2-dihydro-6-quinolinesulfonamide] was tested, and the IC50 (in-vitro Nav 1.7 PX data) was 0.016 µM.

Work on `COc1cc(C[C@H]2CCCCO2)c(F)cc1-n1c(=O)ccc2cc(S(=O)(=O)Nc3ccon3)ccc21` [Example 1133, 1-(5-fluoro-2-methoxy-4-((2R)-tetrahydro-2H-pyran-2-ylmethyl)phenyl)-N-3-isoxazolyl-2-oxo-1,2-dihydro-6-quinolinesulfonamide, 1-(5-fluoro-2-methoxy-4-((2S)-tetrahydro-2H-pyran-2-ylmethyl)phenyl)-N-3-isoxazolyl-2-oxo-1,2-dihydro-6-quinolinesulfonamide] yielded an IC50 (in-vitro Nav 1.7 PX data) of 2.26 µM.

`COc1cc(-c2cccc(Cl)c2)c(C)cc1-n1c(=O)ccc2cc(S(=O)(=O)Nc3ncccn3)ccc21` (atropisomer, axis not shown; (P)) [Example 321, (P)-1-(3′-chloro-5-methoxy-2-methyl-4-biphenylyl)-2-oxo-N-2-pyrimidinyl-1,2-dihydro-6-quinolinesulfonamide] gave an IC50 of 0.01 µM.

For `COc1cc(-c2cc(Cl)cnc2OC)c(F)cc1-n1c(=O)ccc2cc(S(=O)(=O)Nc3cccnn3)ccc21` [Example 775, 1-(4-(5-chloro-2-methoxy-3-pyridinyl)-5-fluoro-2-methoxyphenyl)-2-oxo-N-3-pyridazinyl-1,2-dihydro-6-quinolinesulfonamide], the IC50 (in-vitro Nav 1.7 PX data) was 0.047 µM.

With `COc1cc(-c2cccc(OC(C)C)c2)ccc1-n1c(=O)ccc2cc(S(=O)(=O)Nc3cccc(F)n3)ccc21` (atropisomer, axis not shown; (P)) [Example 1208, (P)-N-(6-fluoro-2-pyridinyl)-1-(3-methoxy-3′-(1-methylethoxy)-4-biphenylyl)-2-oxo-1,2-dihydro-6-quinolinesulfonamide] the IC50 was 0.258 µM.

`COc1cc(Br)ccc1-n1c(=O)ccc2cc(S(=O)(=O)Nc3cccnn3)ccc21` [Example 1050, 1-(4-bromo-2-methoxyphenyl)-2-oxo-N-3-pyridazinyl-1,2-dihydro-6-quinolinesulfonamide] gave an IC50 (in-vitro Nav 1.7 PX data (PatchXpress)) of 1.43 µM.

Work on `COc1ccc(-c2cc(Cl)ccc2F)cc1-n1c(=O)ccc2cc(S(=O)(=O)Nc3ccon3)ccc21` [Example 880, 1-(5′-chloro-2′-fluoro-4-methoxy-3-biphenylyl)-N-3-isoxazolyl-2-oxo-1,2-dihydro-6-quinolinesulfonamide] yielded an IC50 (in-vitro Nav 1.7 PX data) of 0.032 µM.

In the case of `COc1cc(-c2cc(OC)c(-n3c(=O)ccc4cc(S(=O)(=O)Nc5ccon5)ccc43)cc2F)ccc1C#N` [Example 720, 1-(4′-cyano-2-fluoro-3′,5-dimethoxy-4-biphenylyl)-N-3-isoxazolyl-2-oxo-1,2-dihydro-6-quinolinesulfonamide], the IC50 (in-vitro Nav 1.7 PX data) is reported as 0.054 µM.

`COc1nc(NCC2(C)CCCC2)c(Cl)cc1-n1c(=O)ccc2cc(S(=O)(=O)Nc3ccon3)ccc21` [Example 1236, 1-(5-chloro-2-methoxy-6-(((1-methylcyclopentyl)methyl)amino)-3-pyridinyl)-N-3-isoxazolyl-2-oxo-1,2-dihydro-6-quinolinesulfonamide] gave an IC50 of 0.507 µM.

In the case of `COc1cc(CC2CCCCC2)c(F)cc1-n1c(=O)ccc2cc(S(=O)(=O)Nc3cccnn3)ccc21` [Example 1112, 1-(4-(cyclohexylmethyl)-5-fluoro-2-methoxyphenyl)-2-oxo-N-3-pyridazinyl-1,2-dihydro-6-quinolinesulfonamide], the IC50 (in-vitro Nav 1.7 PX data) is reported as 0.025 µM.

Compound “1-(4′-chloro-2-fluoro-3′,5-dimethyl-4-biphenylyl)-2-oxo-N-3-pyridazinyl-1,2-dihydro-6-quinolinesulfonamide [Example 973]” has an IC50 (in-vitro Nav 1.7 PX data) of 0.09 µM.

For `COc1cc(OC)cc(-c2cc(OC)c(-n3c(=O)ccc4cc(S(=O)(=O)Nc5ccnc(C)n5)ccc43)cc2F)c1` (atropisomer, axis not shown; (P)) [Example 1171, (P)-1-(2-fluoro-3′,5,5′-trimethoxy-4-biphenylyl)-N-(2-methyl-4-pyrimidinyl)-2-oxo-1,2-dihydro-6-quinolinesulfonamide], the IC50 was 0.096 µM.

`COc1ccc(-c2ccc(F)c(C#N)c2)cc1-n1c(=O)ccc2cc(S(=O)(=O)Nc3ccon3)ccc21` [Example 834, 1-(3′-cyano-4′-fluoro-4-methoxy-3-biphenylyl)-N-3-isoxazolyl-2-oxo-1,2-dihydro-6-quinolinesulfonamide] showed an IC50 (in-vitro Nav 1.7 PX data) of 0.294 µM.

With `COc1cnc(-c2cc(Cl)ccc2F)cc1-n1c(=O)ccc2cc(S(=O)(=O)Nc3ccon3)ccc21` [Example 1169, 1-(2-(5-chloro-2-fluorophenyl)-5-methoxy-4-pyridinyl)-N-3-isoxazolyl-2-oxo-1,2-dihydro-6-quinolinesulfonamide] the IC50 was 0.805 µM.

In the case of `COc1cc(Cl)cc(-c2cc(OC)cc(-c3cc(OC)c(-n4c(=O)ccc5cc(S(=O)(=O)Nc6ccon6)ccc54)cc3F)c2)c1` [Example 723, 1-(3″-chloro-2-fluoro-5,5′,5″-trimethoxy-1,1′:3′,1″-terphenyl-4-yl)-N-3-isoxazolyl-2-oxo-1,2-dihydro-6-quinolinesulfonamide], the IC50 (in-vitro Nav 1.7 PX data) is reported as 0.007 µM.

`COc1cc(-c2cc(Cl)ccc2C)c(F)cc1-n1c(=O)ccc2cc(S(=O)(=O)Nc3ccon3)ccc21` [Example 743, 1-(5′-chloro-2-fluoro-5-methoxy-2′-methyl-4-biphenylyl)-N-3-isoxazolyl-2-oxo-1,2-dihydro-6-quinolinesulfonamide] gave an IC50 (in-vitro Nav 1.7 PX data) of 0.005 µM.

In the case of `COc1cc(-c2ccc(Cl)c(C#N)c2)c(F)cc1-n1c(=O)ccc2cc(S(=O)(=O)Nc3ncccn3)ccc21` [Example 871, 1-(4′-chloro-3′-cyano-2-fluoro-5-methoxy-4-biphenylyl)-2-oxo-N-2-pyrimidinyl-1,2-dihydro-6-quinolinesulfonamide], the IC50 (in-vitro Nav 1.7 PX data) is reported as 0.044 µM.

For `COc1cc(-c2cc(OC)c(-n3c(=O)ccc4cc(S(=O)(=O)Nc5ncccn5)ccc43)cc2C)ccc1C` [Example 966, 1-(3′,5-dimethoxy-2,4′-dimethyl-4-biphenylyl)-2-oxo-N-2-pyrimidinyl-1,2-dihydro-6-quinolinesulfonamide], the IC50 (in-vitro Nav 1.7 PX data) was 0.064 µM.

Work on `COc1cccc(-c2nc(OC)c(-n3c(=O)ccc4cc(S(=O)(=O)Nc5ccon5)ccc43)cc2Cl)c1` [Example 1093, 1-(5-chloro-2-methoxy-6-(3-methoxyphenyl)-3-pyridinyl)-N-3-isoxazolyl-2-oxo-1,2-dihydro-6-quinolinesulfonamide] yielded an IC50 (in-vitro Nav 1.7 PX data) of 4.95 µM.

`COc1cc(-c2cc(F)cc(Cl)c2)c(F)cc1-n1c(=O)ccc2cc(S(=O)(=O)Nc3cc(C)ncn3)ccc21` [Example 933, 1-(3′-chloro-2,5′-difluoro-5-methoxy-4-biphenylyl)-N-(6-methyl-4-pyrimidinyl)-2-oxo-1,2-dihydro-6-quinolinesulfonamide] gave an IC50 (in-vitro Nav 1.7 PX data) of 0.008 µM.

In the case of `COc1ccc(-c2cccc(C#N)c2)cc1-n1c(=O)ccc2cc(S(=O)(=O)Nc3ccon3)ccc21` [Example 493, 1-(3′-cyano-4-methoxy-3-biphenylyl)-N-3-isoxazolyl-2-oxo-1,2-dihydro-6-quinolinesulfonamide], the IC50 is reported as 0.418 µM.

`COc1cc(-c2cccc(OC(C)C)c2)ccc1-n1c(=O)ccc2cc(S(=O)(=O)Nc3cc(C)ncn3)ccc21` (atropisomer, axis not shown; (P)) [Example 1205, (P)-1-(3-methoxy-3′-(1-methylethoxy)-4-biphenylyl)-N-(6-methyl-4-pyrimidinyl)-2-oxo-1,2-dihydro-6-quinolinesulfonamide] was tested, and the IC50 was 0.29 µM.

`COc1cc(-c2ccc(Cl)c(C)c2)ccc1-n1c(=O)ccc2cc(S(=O)(=O)Nc3cccnn3)ccc21` (atropisomer, axis not shown; (M)) [Example 372, (M)-1-(4′-chloro-3-methoxy-3′-methyl-4-biphenylyl)-2-oxo-N-3-pyridazinyl-1,2-dihydro-6-quinolinesulfonamide] gave an IC50 (in-vitro PatchXpress (PX)) of 0.029 µM.

`COc1nc(OCC(F)(F)C2CCOCC2)c(Cl)cc1-n1c(=O)ccc2cc(S(=O)(=O)Nc3ccon3)ccc21` [Example 1211, 1-(5-chloro-6-(2,2-difluoro-2-(tetrahydro-2H-pyran-4-yl)ethoxy)-2-methoxy-3-pyridinyl)-N-3-isoxazolyl-2-oxo-1,2-dihydro-6-quinolinesulfonamide] gave an IC50 of 0.793 µM.

Work on `COc1cc(C[C@H]2CCCOC2)c(F)cc1-n1c(=O)ccc2cc(S(=O)(=O)Nc3ccon3)ccc21` [Example 1118, 1-(5-fluoro-2-methoxy-4-((3R)-tetrahydro-2H-pyran-3-ylmethyl)phenyl)-N-3-isoxazolyl-2-oxo-1,2-dihydro-6-quinolinesulfonamide, 1-(5-fluoro-2-methoxy-4-((3S)-tetrahydro-2H-pyran-3-ylmethyl)phenyl)-N-3-isoxazolyl-2-oxo-1,2-dihydro-6-quinolinesulfonamide] yielded an IC50 (in-vitro Nav 1.7 PX data) of 1.48 µM.

With `COc1cc(-c2ccc(F)c(F)c2)ccc1-n1c(=O)ccc2cc(S(=O)(=O)Nc3ccnc(C)n3)ccc21` [Example 900, 1-(3′,4′-difluoro-3-methoxy-4-biphenylyl)-N-(2-methyl-4-pyrimidinyl)-2-oxo-1,2-dihydro-6-quinolinesulfonamide] the IC50 (in-vitro Nav 1.7 PX data) was 0.285 µM.

`COc1cc(-c2ccc(Cl)cc2)c(F)cc1-n1c(=O)ccc2cc(S(=O)(=O)Nc3cccnn3)ccc21` [Example 746, 1-(4′-chloro-2-fluoro-5-methoxy-4-biphenylyl)-2-oxo-N-3-pyridazinyl-1,2-dihydro-6-quinolinesulfonamide] gave an IC50 (in-vitro Nav 1.7 PX data) of 0.024 µM.

`COc1cc(-c2cccc(Cl)c2C)ccc1-n1c(=O)ccc2cc(S(=O)(=O)Nc3ccon3)ccc21` [Example 1028, 1-(3′-chloro-3-methoxy-2′-methyl-4-biphenylyl)-N-3-isoxazolyl-2-oxo-1,2-dihydro-6-quinolinesulfonamide] showed an IC50 (in-vitro Nav 1.7 PX data) of 0.018 µM.

`COc1nc(-c2cccc(F)c2)c(Cl)cc1-n1c(=O)ccc2cc(S(=O)(=O)Nc3ccon3)ccc21` [Example 341, 1-(5-chloro-6-(3-fluorophenyl)-2-methoxypyridin-3-yl)-N-(isoxazol-3-yl)-2-oxo-1,2-dihydroquinoline-6-sulfonamide] was tested, and the IC50 (in-vitro PatchXpress (PX)) was 0.168 µM.
